# System: Escherichia coli ATCC 25922
# Assay: 50% growth inhibitory concentration (IC50) determination, Iso-Sensitest broth dilution
# Format: cell-based
# Conditions: Escherichia coli, ATCC25922, 16 h, strain Escherichia coli ATCC 25922; 10-point broth dilution, optical density at 600 nm over 16 h; read-out: Escherichia coli growth inhibition IC50
# Procedure, shortened: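 10-point twofold Iso-Sensitest broth dilution (e.g. 50 to 0.097 μM final) with DMSO stocks, incubated at 35±2° C. Growth followed by OD 600 nm every 20 min over 16 h; IC50 derived from growth inhibition during logarithmic phase.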
row,SMILES,IC50
1,"O=C1COc2ccc(N3CC(CCNCCC4Cc5cccc(Cl)c5C4)OC3=O)nc2N1 (stereo not shown) [Example 20, 6-[5-[2-[2-(4-chloro-2,3-dihydro-1H-inden-2-yl)ethylamino]ethyl]-2-oxo-1,3-oxazolidin-3-yl]-4H-pyrido[3,2-b][1,4]oxazin-3-one; formic acid]",139 nM
2,"Cc1nc(N(C)C)cc2c1CC(CNCCC1CN(c3ccc4c(n3)NC(=O)CO4)C(=O)O1)C2 (stereo not shown) [Example 419, 6-[5-[2-[[3-(Dimethylamino)-1-methyl-6,7-dihydro-5H-cyclopenta[c]pyridin-6-yl]methylamino]ethyl]-2-oxo-1,3-oxazolidin-3-yl]-4H-pyrido[3,2-b][1,4]oxazin-3-one]",225 nM
3,"COc1cc2c(c(Cl)n1)CC(CNCCC1CN(c3cnc4c(n3)NC(=O)CO4)C(=O)O1)C2 (stereo not shown) [Example 50, 6-[5-[2-[(1-chloro-3-methoxy-6,7-dihydro-5H-cyclopenta[c]pyridin-6-yl)methylamino]ethyl]-2-oxo-1,3-oxazolidin-3-yl]-4H-pyrazino[2,3-b][1,4]oxazin-3-one]",< 97.7 nM
4,"NC1(COc2cc(F)c3c(c2)CC(CNCCC2CN(c4ccc5c(n4)NC(=O)CO5)C(=O)O2)C3)CC1 (stereo not shown) [Example 160, 6-[5-[2-[[6-[(1-aminocyclopropyl)methoxy]-4-fluoro-2,3-dihydro-1H-inden-2-yl]methylamino]ethyl]-2-oxo-1,3-oxazolidin-3-yl]-4H-pyrido[3,2-b][1,4]oxazin-3-one]",< 97.7 nM
5,"Cc1nc2c(c3c1CC(CNCCC1CN(c4ccc5c(n4)NC(=O)CO5)C(=O)O1)C3)CCN2C (stereo not shown) [Example 416, 6-[5-[2-[(5,8-dimethyl-5,7-diazatricyclo[7.3.0.0^2,6]dodeca-1,6,8-trien-11-yl)methylamino]ethyl]-2-oxo-1,3-oxazolidin-3-yl]-4H-pyrido[3,2-b][1,4]oxazin-3-one]",95.1 nM
6,"CNC(=O)COc1cc(C)c2c(c1C)CC(CNCCC1CN(c3ccc4c(n3)NC(=O)CO4)C(=O)O1)C2 (stereo not shown) [Example 112, 2 2-[[4,7-dimethyl-2-[[2-[2-oxo-3-(3-oxo-4H-pyrido[3,2-b][1,4]oxazin-6-yl)-1,3-oxazolidin-5-yl]ethylamino]methyl]-2,3-dihydro-1H-inden-5-yl]oxy]-N-methylacetamide]",303 nM
7,"CNC(=O)COc1cc(C)c2c(c1C)CC(CNCCC1CN(c3cnc4c(n3)NC(=O)CO4)C(=O)O1)C2 (stereo not shown) [Example 113, 2-[[4,7-dimethyl-2-[[2-[2-oxo-3-(3-oxo-4H-pyrazino[2,3-b][1,4]oxazin-6-yl)-1,3-oxazolidin-5-yl]ethylamino]methyl]-2,3-dihydro-1H-inden-5-yl]oxy]-N-methylacetamide]",323 nM
8,"Cc1nc(OCCCS(C)(=O)=O)c(C)c2c1CC(CNCCC1CN(c3ccc4c(n3)NC(=O)CO4)C(=O)O1)C2 (stereo not shown) [Example 105, 6-[5-[2-[[1,4-dimethyl-3-(3-methylsulfonylpropoxy)-6,7-dihydro-5H-cyclopenta[c]pyridin-6-yl]methylamino]ethyl]-2-oxo-1,3-oxazolidin-3-yl]-4H-pyrido[3,2-b][1,4]oxazin-3-one]",1110 nM
9,"Cc1c(OC[C@H](N)CO)nc(C#N)c2c1CC(CNCCC1CN(c3ccc4c(n3)NC(=O)CO4)C(=O)O1)C2 (stereo partly drawn) [Example 235, 3-[(2R)-2-Amino-3-hydroxypropoxy]-4-methyl-6-[[2-[2-oxo-3-(3-oxo-4H-pyrido[3,2-b][1,4]oxazin-6-yl)-1,3-oxazolidin-5-yl]ethylamino]methyl]-6,7-dihydro-5H-cyclopenta[c]pyridine-1-carbonitrile]",196 nM
10,"N#Cc1cccc2c1C(N)C(CNCCC1CN(c3ccc4c(n3)NC(=O)CS4)C(=O)O1)C2 (racemic) [Example 157, rac-2,3-trans-3-amino-2-[[2-[2-oxo-3-(3-oxo-4H-pyrido[3,2-b][1,4]thiazin-6-yl)-1,3-oxazolidin-5-yl]ethylamino]methyl]-2,3-dihydro-1H-indene-4-carbonitrile]",< 97.7 nM
11,"CC(C)(N)COc1cc(F)c2c(c1)CC(CNCC[C@H]1CN(c3cnc4c(n3)NC(=O)CO4)C(=O)O1)C2 (stereo partly drawn) [Example 341, 6-[(5S)-5-[2-[[6-(2-amino-2-methylpropoxy)-4-fluoro-2,3-dihydro-1H-inden-2-yl]methylamino]ethyl]-2-oxo-1,3-oxazolidin-3-yl]-4H-pyrazino[2,3-b][1,4]oxazin-3-one; formic acid]",< 97.7 nM
12,"NC1c2c(Cl)cccc2CC1CNCCC1CN(c2cnc3c(n2)NC(=O)CO3)C(=O)O1 (racemic) [Example 169, 6-[2-oxo-5-[2-[[rac-1,2-trans-1-amino-7-chloro-2,3-dihydro-1H-inden-2-yl]methylamino]ethyl]-1,3-oxazolidin-3-yl]-4H-pyrazino[2,3-b][1,4]oxazin-3-one]",< 97.7 nM
13,"CONC(=O)COc1cc(F)c2c(c1)CC(CNCCC1CN(c3cnc4c(n3)NC(=O)CO4)C(=O)O1)C2 (stereo not shown) [Example 311, 2-[[7-Fluoro-2-[[2-[2-oxo-3-(3-oxo-4H-pyrazino[2,3-b][1,4]oxazin-6-yl)-1,3-oxazolidin-5-yl]ethylamino]methyl]-2,3-dihydro-1H-inden-5-yl]oxy]-N-methoxyacetamide; formic acid]",382 nM
14,"NC1(COc2ccc3c(c2Cl)CC(NCCCC2CN(c4ccc5c(n4)NC(=O)CO5)C(=O)O2)C3)CC1 (stereo not shown) [Example 119, 6-[5-[3-[[5-[(1-aminocyclopropyl)methoxy]-4-chloro-2,3-dihydro-1H-inden-2-yl]amino]propyl]-2-oxo-1,3-oxazolidin-3-yl]-4H-pyrido[3,2-b][1,4]oxazin-3-one; formic acid]",< 97.7 nM
15,"CNC(=O)COc1cc(F)c2c(c1)CC(CN1CCC3(CC1)CN(c1cnc4c(n1)NC(=O)CO4)C(=O)O3)C2 (stereo not shown) [Example 309, 2-[[7-fluoro-2-[[2-oxo-3-(3-oxo-4H-pyrazino[2,3-b][1,4]oxazin-6-yl)-1-oxa-3,8-diazaspiro[4.5]decan-8-yl]methyl]-2,3-dihydro-1H-inden-5-yl]oxy]-N-methylacetamide]",< 97.7 nM
16,"Cc1nc(Cl)nc2c1CC(CNCCC1CN(c3ccc4c(n3)NC(=O)CO4)C(=O)O1)C2 (stereo not shown) [Example 385, 6-[5-[2-[(2-chloro-4-methyl-6,7-dihydro-5H-cyclopenta[d]pyrimidin-6-yl)methylamino]ethyl]-2-oxo-1,3-oxazolidin-3-yl]-4H-pyrido[3,2-b][1,4]oxazin-3-one]",923 nM
17,"Cc1nc(OCCNC2CC2)c(C)c2c1CC(CNCCC1CN(c3ccc4c(n3)NC(=O)CO4)C(=O)O1)C2 (stereo not shown) [Example 189, 6-[5-[2-[[3-[2-(cyclopropylamino)ethoxy]-1,4-dimethyl-6,7-dihydro-5H-cyclopenta[c]pyridin-6-yl]methylamino]ethyl]-2-oxo-1,3-oxazolidin-3-yl]-4H-pyrido[3,2-b][1,4]oxazin-3-one]",99.5 nM
18,"O=C1COc2ccc(N3CC(CCCNC4Cc5ccc(Cl)cc5C4)OC3=O)nc2N1 (stereo not shown) [Example 10, 6-[5-[3-[(5-chloro-2,3-dihydro-1H-inden-2-yl)amino]propyl]-2-oxo-1,3-oxazolidin-3-yl]-4H-pyrido[3,2-b][1,4]oxazin-3-one; formic acid]",447 nM
19,"NC(COc1cc(F)c2c(c1)CC(CNCCC1CN(c3ccc4c(n3)NC(=O)CO4)C(=O)O1)C2)C(=O)O (stereo not shown) [Example 267, 2-Amino-3-[[7-fluoro-2-[[2-[2-oxo-3-(3-oxo-4H-pyrido[3,2-b][1,4]oxazin-6-yl)-1,3-oxazolidin-5-yl]ethylamino]methyl]-2,3-dihydro-1H-inden-5-yl]oxy]propanoic acid; formic acid]",< 97.7 nM
20,"Cc1nc(C)c2c(c1C)CC(CNCCC1CN(c3ccc4c(n3)NC(=O)CO4)C(=O)O1)C2 (stereo not shown) [Example 93, 6-[2-oxo-5-[2-[(1,3,4-trimethyl-6,7-dihydro-5H-cyclopenta[c]pyridin-6-yl)methylamino]ethyl]-1,3-oxazolidin-3-yl]-4H-pyrido[3,2-b][1,4]oxazin-3-one]",< 97.7 nM
21,"NC1c2ccnc(Cl)c2CC1CNCCC1CN(c2ccc3c(n2)NC(=O)CO3)C(=O)O1 (racemic) [Example 146, 6-[2-oxo-5-[2-[[rac-5,6-cis-5-amino-1-chloro-6,7-dihydro-5H-cyclopenta[c]pyridin-6-yl]methylamino]ethyl]-1,3-oxazolidin-3-yl]-4H-pyrido[3,2-b][1,4]oxazin-3-one; formic acid]",1010 nM
22,"Cc1ncc(F)c2c1CC(CN[C@H]1C[C@H](C3CN(c4cnc5c(n4)NC(=O)CO5)C(=O)O3)C1)C2 (stereo partly drawn) [Example 361, 6-[5-[trans-3-[(4-fluoro-1-methyl-6,7-dihydro-5H-cyclopenta[c]pyridin-6-yl)methylamino]cyclobutyl]-2-oxo-1,3-oxazolidin-3-yl]-4H-pyrazino[2,3-b][1,4]oxazin-3-one]",336 nM
23,"N#Cc1cccc2c1C(N)C(CNCCC1CN(c3ccc4c(n3)NC(=O)CO4)C(=O)O1)C2 (racemic) [Example 156, rac-2,3-trans-3-amino-2-[[2-[2-oxo-3-(3-oxo-4H-pyrido[3,2-b][1,4]oxazin-6-yl)-1,3-oxazolidin-5-yl]ethylamino]methyl]-2,3-dihydro-1H-indene-4-carbonitrile]",< 97.7 nM
24,"NC1(COc2ccc3c(c2Cl)CC(CNCCC2CN(c4ccc5c(n4)NC(=O)CO5)C(=O)O2)C3)CC1 (stereo not shown) [Example 117, 6-[5-[2-[[5-[(1-aminocyclopropyl)methoxy]-4-chloro-2,3-dihydro-1H-inden-2-yl]methylamino]ethyl]-2-oxo-1,3-oxazolidin-3-yl]-4H-pyrido[3,2-b][1,4]oxazin-3-one; formic acid]",< 97.7 nM

# Same assay, conditions: strain Escherichia coli ATCC 25922; 10-point broth dilution, optical density at 600 nm over 16 h; read-out: Escherichia coli growth inhibition IC50
row,SMILES,IC50
1,"O=C1COc2ncc(N3CC(CC(O)CNC4Cc5cccc(F)c5C4)OC3=O)nc2N1 (single isomer, unassigned; isomer a) [Example 83, 6-[5-[3-[(4-fluoro-2,3-dihydro-1H-inden-2-yl)amino]-2-hydroxypropyl]-2-oxo-1,3-oxazolidin-3-yl]-4H-pyrazino[2,3-b][1,4]oxazin-3-one, Isomer A; formic acid]",< 97.7 nM

# — patent publication US20230167127A1, “COMPOUNDS AND THEIR USE IN THE TREATMENT OF BACTERIAL INFECTION” (Hoffmann-La Roche Inc., priority 2020, published 2023)
